From patent publication US11339419B2, “Scavenger protein(s) for improved preservation of analyte detection sensor(s) and method(s) of use thereof” (Siemens Healthcare Diagnostics Inc., priority 2017, dated 2022)
Values joined by “and” are separate entries in the source; they are usually repeats but may differ in a detail not shown here. Equal values may be shown once.

Assays:
Format in all cases: biochemical
[1] = test system: sarcosine oxidase (BBI Solutions); experiment: BBI Solutions Sarcosine Oxidase Enzyme Absorbance with BSA and MIT; conditions: 0 mg/mL BSA; for Sarcosine Oxidase Enzyme Absorbance, MEAN of 1-5 / Sarcosine Oxidase Enzyme Absorbance, solutions 1-5: 37° C.
Protocol: (§1) Tables 1-4 depict aqueous solutions comprising varying concentrations of BSA (at concentrations of 0 mg/mL, 5 mg/mL, 25 mg/mL, and 50 mg/mL), varying concentrations of MIT (at concentrations of 50 parts per million and 100 parts per million) or Proclin™ 300 (at concentrations of 0.7% and 1.4%) biocides over a particular time period (measurements were taken at days 0, 4, and 14 after exposure of the enzyme(s) to the aqueous solutions) and the associated enzyme absorbance measurements for sarcosine oxidase (commercially offered for sale by BBI Solutions and Toyobo). Absorbance measurements of the sarcosine oxidase enzyme(s) were taken via spectrophotometer for each aqueous solution (represented as columns 1-5 in Tables 1-4—column 6 is a blank), the absorbance being directly proportional to the enzyme activity being measured-which for Tables 1-4 is sarcosine oxidase enzyme activity. Accordingly, the higher the absorbance measurement, the higher the enzyme activity of sarcosine oxidase. Columns 7-11 represent five replicate readings in which the aqueous solution only contains BSA (i.e., there is no biocide(s) present in the aqueous solution). In addition, the mean values, standard deviations, and coefficients of variation are also presented for the enzyme activity/absorbance of each aqueous solution. All measurements were taken at 37° C.
As depicted below in Table 1, sarcosine oxidase (commercially offered for sale by BBI Solutions) enzyme activity is measured against various concentrations of MIT (biocide) and BSA (scavenger protein) over a period of 14 days (with absorbance measurements taken at 0, 4, and 14 days) for five different aqueous solutions (represented as columns 1-5—column 6 is a blank).

[2] = test system: creatininase (Toyobo); experiment: Toyobo Creatininase Enzyme Absorbance with BSA and MIT; conditions: 0 mg/mL BSA
Description: Absorbance measurements of the creatininase enzyme(s) were taken via spectrophotometer for each aqueous solution (represented as columns 1-5 in Tables 5-8—column 6 is a blank), the absorbance being directly proportional to the enzyme activity being measured-which for Tables 5-8 is creatininase enzyme activity. Accordingly, the higher the absorbance measurement, the higher the enzyme activity of creatininase. Columns 7-11 represent five replicate readings in which the solution only contains BSA (i.e., there is no biocide(s) present in the solution). In addition, the mean values, standard deviations, and coefficients of variation are all presented for the enzyme activity/absorbance of each aqueous solution. All measurements were taken at 37° C.
As depicted in Table 6, creatininase (commercially offered for sale by Toyobo) enzyme activity is measured against various concentrations of MIT (biocide) and BSA (scavenger protein) over a period of 14 days (with absorbance measurement taken at 0, 4, and 14 days) for five different aqueous solutions (represented as columns 1-5—column 6 is a blank).

[3] = test system: creatininase (BBI Solutions); experiment: BBI Solutions Creatininase Enzyme Absorbance with BSA and MIT; conditions: 0 mg/mL BSA
Protocol: Table 5-8 depict aqueous solutions comprising varying concentrations of BSA (at concentrations of 0 mg/mL, 5 mg/mL, 25 mg/mL, and 50 mg/mL), varying concentrations of MIT (at concentrations of 50 parts per million and 100 parts per million) or Proclin™ 300 (at concentrations of 0.7% and 1.4%) biocide over a particular time period (measurements were taken at days 0, 4, and 14 after exposure of the enzyme(s) to the particular aqueous solutions) and the associated enzyme absorbance measurements for creatininase (commercially offered for sale by BBI Solutions and Toyobo). Absorbance measurements of the creatininase enzyme(s) were taken via spectrophotometer for each aqueous solution (represented as columns 1-5 in Tables 5-8—column 6 is a blank), the absorbance being directly proportional to the enzyme activity being measured-which for Tables 5-8 is creatininase enzyme activity. Accordingly, the higher the absorbance measurement, the higher the enzyme activity of creatininase. Columns 7-11 represent five replicate readings in which the solution only contains BSA (i.e., there is no biocide(s) present in the solution). In addition, the mean values, standard deviations, and coefficients of variation are all presented for the enzyme activity/absorbance of each aqueous solution. All measurements were taken at 37° C.
As depicted in Table 5, creatininase (commercially offered for sale by BBI Solutions) enzyme activity is measured against various concentrations of MIT (biocide) and BSA (scavenger protein) over a period of 14 days (with absorbance measurement taken at 0, 4, and 14 days) for five different aqueous solutions (represented as columns 1-5—column 6 is a blank).

[4] = test system: sarcosine oxidase (Toyobo); experiment: Toyobo Sarcosine Oxidase Enzyme Absorbance with BSA and MIT; conditions: 0 mg/mL BSA; for Sarcosine Oxidase Enzyme Absorbance, MEAN of 1-5 / Sarcosine Oxidase Enzyme Absorbance, solutions 1-5: 37° C.
Protocol: as §1
As depicted below in Table 2, sarcosine oxidase (commercially offered for sale by Toyobo) enzyme activity is measured against various concentrations of MIT (biocide) and BSA (scavenger protein) over a period of 14 days (with absorbance measurements taken at 0, 4, and 14 days) for five different aqueous solutions (represented as columns 1-5-column 6 is a blank).

SMILES: Cn1sccc1=O [MIT, methylisothiazolinone, reference compound]
- % Bias ([1]; Day 0, 50 ppm MIT vs no MIT): 3.8%
- Sarcosine Oxidase Enzyme Absorbance, MEAN of 1-5 ([1]; Day 0, 50 ppm MIT): 1.43
- Sarcosine Oxidase Enzyme Absorbance, solutions 1-5 ([1]; Day 0, 50 ppm MIT): 1.463 and 1.459 and 1.507 and 1.474 and 1.477
- % Bias ([1]; Day 0, 100 ppm MIT vs no MIT): 1.3%
- Sarcosine Oxidase Enzyme Absorbance, MEAN of 1-5 ([1]; Day 0, 100 ppm MIT): 1.39
- Sarcosine Oxidase Enzyme Absorbance, solutions 1-5 ([1]; Day 0, 100 ppm MIT): 1.446 and 1.428 and 1.422 and 1.427 and 1.423
- % Bias ([1]; Day 4, 50 ppm MIT vs no MIT): 1.5%
- Sarcosine Oxidase Enzyme Absorbance, MEAN of 1-5 ([1]; Day 4, 50 ppm MIT): 1.35
- Sarcosine Oxidase Enzyme Absorbance, solutions 1-5 ([1]; Day 4, 50 ppm MIT): 1.388 and 1.397 and 1.401 and 1.346 and 1.368
- % Bias ([1]; Day 4, 100 ppm MIT vs no MIT): 2.0%
- Sarcosine Oxidase Enzyme Absorbance, MEAN of 1-5 ([1]; Day 4, 100 ppm MIT): 1.35
- Sarcosine Oxidase Enzyme Absorbance, solutions 1-5 ([1]; Day 4, 100 ppm MIT): 1.38 and 1.379 and 1.384 and 1.353
- % Bias ([1]; Day 14, 50 ppm MIT vs no MIT): −8.8%
- Sarcosine Oxidase Enzyme Absorbance, MEAN of 1-5 ([1]; Day 14, 50 ppm MIT): 0.24
- Sarcosine Oxidase Enzyme Absorbance, solutions 1-5 ([1]; Day 14, 50 ppm MIT): 0.272 and 0.267 and 0.265 and 0.283 and 0.286
- % Bias ([1]; Day 14, 100 ppm MIT vs no MIT): −34.1%
- Sarcosine Oxidase Enzyme Absorbance, MEAN of 1-5 ([1]; Day 14, 100 ppm MIT): 0.18
- Sarcosine Oxidase Enzyme Absorbance, solutions 1-5 ([1]; Day 14, 100 ppm MIT): 0.218 and 0.215 and 0.21 and 0.214 and 0.219
- % Bias ([2]; Day 0, 50 ppm MIT vs no MIT): 10.4%
- Creatininase Enzyme Absorbance ([2]; Day 0, 50 ppm MIT): 0.846 and 0.775 and 0.735 and 0.721 and 0.713
- MEAN ([2]; Day 0, 50 ppm MIT): 0.56
- % Bias ([2]; Day 0, 100 ppm MIT vs no MIT): 3.8%
- Creatininase Enzyme Absorbance ([2]; Day 0, 100 ppm MIT): 0.937 and 0.871 and 0.866 and 0.827 and 0.836
- MEAN ([2]; Day 0, 100 ppm MIT): 0.67
- % Bias ([2]; Day 4, 50 ppm MIT vs no MIT): 12.2%
- Creatininase Enzyme Absorbance ([2]; Day 4, 50 ppm MIT): 0.777 and 0.754 and 0.767 and 0.743 and 0.77
- MEAN ([2]; Day 4, 50 ppm MIT): 0.55
- % Bias ([2]; Day 4, 100 ppm MIT vs no MIT): 9.8%
- Creatininase Enzyme Absorbance ([2]; Day 4, 100 ppm MIT): 0.745 and 0.768 and 0.763 and 0.748 and 0.792
- MEAN ([2]; Day 4, 100 ppm MIT): 0.55
- % Bias ([2]; Day 14, 50 ppm MIT vs no MIT): 9.3%
- Creatininase Enzyme Absorbance ([2]; Day 14, 50 ppm MIT): 0.828 and 0.801 and 0.702 and 0.794 and 0.79
- MEAN ([2]; Day 14, 50 ppm MIT): 0.55
- % Bias ([2]; Day 14, 100 ppm MIT vs no MIT): 5.1%
- Creatininase Enzyme Absorbance ([2]; Day 14, 100 ppm MIT): 0.794 and 0.774 and 0.784 and 0.73 and 0.78
- MEAN ([2]; Day 14, 100 ppm MIT): 0.54
- % Bias ([3]; Day 0, 50 ppm MIT vs no MIT): 4.1%
- Creatininase Enzyme Absorbance ([3]; Day 0, 50 ppm MIT): 0.663 and 0.662 and 0.668 and 0.62 and 0.649
- MEAN ([3]; Day 0, 50 ppm MIT): 0.45
- % Bias ([3]; Day 0, 100 ppm MIT vs no MIT): 0.7%
- Creatininase Enzyme Absorbance ([3]; Day 0, 100 ppm MIT): 0.765 and 0.721 and 0.731 and 0.712 and 0.723
- MEAN ([3]; Day 0, 100 ppm MIT): 0.53
- % Bias ([3]; Day 4, 50 ppm MIT vs no MIT): 3.3%
- Creatininase Enzyme Absorbance ([3]; Day 4, 50 ppm MIT): 0.654 and 0.633 and 0.52 and 0.638
- MEAN ([3]; Day 4, 50 ppm MIT): 0.41
- % Bias ([3]; Day 4, 100 ppm MIT vs no MIT): −2.3%
- Creatininase Enzyme Absorbance ([3]; Day 4, 100 ppm MIT): 0.616 and 0.604 and 0.597 and 0.523
- MEAN ([3]; Day 4, 100 ppm MIT): 0.38
- % Bias ([3]; Day 14, 50 ppm MIT vs no MIT): −6.5%
- Creatininase Enzyme Absorbance ([3]; Day 14, 50 ppm MIT): 0.732 and 0.689 and 0.701 and 0.686 and 0.725
- MEAN ([3]; Day 14, 50 ppm MIT): 0.44
- % Bias ([3]; Day 14, 100 ppm MIT vs no MIT): 7.0%
- Creatininase Enzyme Absorbance ([3]; Day 14, 100 ppm MIT): 0.755 and 0.699 and 0.714 and 0.707 and 0.716
- MEAN ([3]; Day 14, 100 ppm MIT): 0.45
- % Bias ([4]; Day 0, 50 ppm MIT vs no MIT): 0.8%
- Sarcosine Oxidase Enzyme Absorbance, MEAN of 1-5 ([4]; Day 0, 50 ppm MIT): 1.42
- Sarcosine Oxidase Enzyme Absorbance, solutions 1-5 ([4]; Day 0, 50 ppm MIT): 1.463 and 1.462 and 1.447 and 1.446
- % Bias ([4]; Day 0, 100 ppm MIT vs no MIT): 2.6%
- Sarcosine Oxidase Enzyme Absorbance, MEAN of 1-5 ([4]; Day 0, 100 ppm MIT): 1.44
- Sarcosine Oxidase Enzyme Absorbance, solutions 1-5 ([4]; Day 0, 100 ppm MIT): 1.491 and 1.45 and 1.5 and 1.478 and 1.464
- % Bias ([4]; Day 4, 50 ppm MIT vs no MIT): 101.5%
- Sarcosine Oxidase Enzyme Absorbance, MEAN of 1-5 ([4]; Day 4, 50 ppm MIT): 0.25
- Sarcosine Oxidase Enzyme Absorbance, solutions 1-5 ([4]; Day 4, 50 ppm MIT): 0.277 and 0.275 and 0.272 and 0.283 and 0.282
- % Bias ([4]; Day 4, 100 ppm MIT vs no MIT): 115.9%
- Sarcosine Oxidase Enzyme Absorbance, MEAN of 1-5 ([4]; Day 4, 100 ppm MIT): 0.27
- Sarcosine Oxidase Enzyme Absorbance, solutions 1-5 ([4]; Day 4, 100 ppm MIT): 0.302 and 0.304 and 0.298 and 0.317
- % Bias ([4]; Day 14, 50 ppm MIT vs no MIT): 7.4%
- Sarcosine Oxidase Enzyme Absorbance, MEAN of 1-5 ([4]; Day 14, 50 ppm MIT): 0.11
- Sarcosine Oxidase Enzyme Absorbance, solutions 1-5 ([4]; Day 14, 50 ppm MIT): 0.154 and 0.153 and 0.151 and 0.159 and 0.16
- % Bias ([4]; Day 14, 100 ppm MIT vs no MIT): 8.8%
- Sarcosine Oxidase Enzyme Absorbance, MEAN of 1-5 ([4]; Day 14, 100 ppm MIT): 0.13
- Sarcosine Oxidase Enzyme Absorbance, solutions 1-5 ([4]; Day 14, 100 ppm MIT): 0.163 and 0.176 and 0.168 and 0.172
